Patent publication EP0216028A2, “Use of anthranilic-acid derivatives as anthelmintic medicaments” (HOECHST AKTIENGESELLSCHAFT, priority 1985, dated 1987)
Where two headings read alike, the source gives them in different places.

What was measured:
[1] = tested on: Leberegel (Fasciola hepatica); test: Chemotherapeutic test in sheep infected with liver fluke (egg count reduction / worm burden); format: in vivo; conditions: Wirtstier: Schaf, p.o.; for minimal effective dose: Fasciola hepatica, po, read-out: Dosis (>90% Reduktion der Wurmbürde); for Chemotherapeut. Index: quotient of Dosis tolerata maxima and Dosis curativa minima
Excerpt: (§1) Zur Feststellung der anthelminthischen Wirkung der Verbindungen der Formel I wurden chemotherapeutische Untersuchungen an ca. 25-30 kg schweren Schaflämmern ausgeführt, die entweder mit Metazerkarien von Fasciola hepatica oder mit Larven von Magen-Darm-Strongyliden, vornehmlich Haemonchus contortus und Trichostongylus colubriformis, oral infiziert worden waren. Nach Ablauf der Präpatenzperiode (Zeit zwischen Infektion und Geschlechtsreife der Parasiten mit beginnender Ausscheidung von Eiern oder Larven) wurde der Parasitenbefall durch Kotuntersuchungen gesichert. […] Unmittelbar danach wurde die Behandlung der Schafe (im allgemeinen 3 - 4 Tiere pro Wirkstoff, mindestens aber 2) vorgenommen. Den Tieren wurde oral oder parenteral eine Suspension von unterschiedlicher Wirkstoffmenge in jeweils 10 ml einer 1%igen Carboxymethylcellulose-Suspension appliziert. Jeweils am 7., 14. und 28. Tag nach der Behandlung wurde wiederum nach den vorstehend angegebenen Verfahren die Eizahl pro Gramm Kot ermittelt und ihre prozentuale Abnahme im Vergleich zum Ausgangswert vor der Behandlung errechnet. Mit einigen Verbindungen wurden außerdem beim Fasciola-Befall noch eine zusätzliche Prüftechnik angewandt: Nach Abschluß der Präpatenzperiode wurde bei Fasciola-positiven Schafen ein künstlicher Gallengang geschaffen, der am Ausgang der Gallenblase ein Sieb enthielt, so daß die nach der Behandlung abgetöteten Leberegel in der Gallenblase aufgefangen werden konnten. Vier bis sieben Tage nach der Behandlung wurden die so operierten und dann behandelten Schafe getötet, die abgetöteten Leberegel in der Gallenblase sowie noch eventuell in der Leber vorhandene lebende Leberegel gezählt und von der gesamten Wurmbürde der Prozentsatz der abgetöteten Parasiten berechnet.
(§2) Der chemotherapeutische Index gibt den Quotienten aus Do- sis tolerata maxima und Dosis curativa minima an.

[2] = tested on: Magen-Darm-Würmer(Ostertagia, Haemonchur, Trichostrongylus, Cooperia, jeweils verschiedene Spezies); test: Chemotherapeutic test in sheep infected with gastrointestinal worms (egg count reduction / worm burden); format: in vivo; conditions: Tabelle 2, Wirtstier: Schaf, p.o.; for Chemotherapeut. Index: quotient of Dosis tolerata maxima and Dosis curativa minima; for minimal effective dose: Trichostrongylus, po, read-out: Dosis (>90% Reduktion der Wurmbürde)
Excerpt: as §1, §2

[3] = Tabelle 3 (comparison of isomers)
[4] = Tabelle 1, minimum curative dose

Compound	minimal effective dose [1, 3]	Chemotherapeut. Index [1, 3]	minimal effective dose [1, 4]	Chemotherapeut. Index ([1]; Tabelle 1)	other results
O=C(Nc1ccc(Cl)cc1)c1ccc(Cl)cc1NS(=O)(=O)c1ccc(Cl)cc1 [V1, 4-Chlor-2-[(4-chlor-phenylsulfonyl)-amino]-benzoesäure-(4-chloranilid), reference compound]	30 mg/kg	2			
O=C(Nc1ccc(Cl)cc1)c1ccc(NS(=O)(=O)c2ccc(Cl)cc2)cc1Cl [V2, reference compound]	20 mg/kg	3			
O=C(Nc1ccc(Cl)cc1)c1ccc(NS(=O)(=O)c2ccc(Cl)cc2)c(Cl)c1 [V3, reference compound]	30 mg/kg	2			
O=C(Nc1ccc(Cl)cc1)c1ccc(Cl)c(NS(=O)(=O)c2ccc(Cl)cc2)c1 [V4, 4-Chlor-3-[(4-Chlorphenylsulfonyl)-amino]-benzoesäure-(4-chlor-anilid), reference compound]	15 mg/kg	4			
O=C(Nc1ccc(Cl)cc1)c1cc(NS(=O)(=O)c2ccc(Cl)cc2)ccc1Cl [V5, reference compound]	30 mg/kg	2			
O=C(Nc1ccc(Cl)c(Cl)c1)c1ccc(Cl)cc1NS(=O)(=O)c1ccc(Cl)cc1 [V6, 4-Chlor-2-[(4-chlor-phenylsulfonyl)-amino]-benzoesäure-(3,4-dichlor-anilid), reference compound]	30 mg/kg	2			
O=C(Nc1ccc(F)cc1)c1cc(NS(=O)(=O)c2ccc(Cl)cc2)ccc1Cl [V7, 2-Chlor-5-[(4-chlor-phenylsulfonyl)-amino]-benzoesäure-(4-fluor-anilid), reference compound]	30 mg/kg	2			
O=C(Nc1ccc(Cl)cc1)c1ccc(NS(=O)(=O)c2ccc(Cl)cc2)cc1Br [V8, reference compound]	30 mg/kg	2			
O=C(Nc1ccc(Cl)cc1)c1ccc(Br)cc1NS(=O)(=O)c1ccc(Cl)cc1 [V9, 4-Brom-2-[(4-chlor-phenylsulfonyl)-amino]-benzoesäure-(4-chlor-anilid), reference compound]	20 mg/kg	3			
O=C(Nc1ccc(Cl)c(Cl)c1)c1ccc(NS(=O)(=O)c2ccc(Cl)cc2)cc1Cl [V10, reference compound]	10 mg/kg	5			
O=C(Nc1ccc(Cl)cc1)c1cc(Cl)ccc1NS(=O)(=O)c1ccc(Cl)cc1 [Verbindung 1]	1.5 mg/kg	über 25	1.5 mg/kg	über 25	
O=C(Nc1ccc(Cl)cc1Cl)c1cc(Cl)ccc1NS(=O)(=O)c1ccc(Cl)cc1 [Verbindung 2, 5-Chlor-2-[(4-chlor-phenylsulfonyl)-amino]-benzoesäure-(2,4-dichlor-anilid)]			7.5 mg/kg	8	
O=C(Nc1ccc(Cl)c(Cl)c1)c1cc(Cl)ccc1NS(=O)(=O)c1ccc(Cl)cc1 [Verbindung 3, 5-Chlor-2-t(4-chlor-phenylsulfonyl)-aminoJ-benzoesäure-(3,4-dichloranilid)]	5 mg/kg	10	5 mg/kg	10	
O=C(Nc1ccc(F)cc1)c1cc(Cl)ccc1NS(=O)(=O)c1ccc(Cl)cc1 [Verbindung 4]		20	2.5 mg/kg	20	Dosis (>90% Reduktion der Wurmbürde) [1, 3]: 2,5 mg/kg Körpergewicht
O=C(Nc1ccc(Br)cc1)c1cc(Cl)ccc1NS(=O)(=O)c1ccc(Cl)cc1 [Verbindung 5, 5-Chlor[(4-chlor-phenylsulfonyl)-amino]-benzoesäure-(4-brom-anilid)]			5 mg/kg	10	
CN(C(=O)c1cc(Cl)ccc1NS(=O)(=O)c1ccc(Cl)cc1)c1ccc(Cl)cc1 [Verbindung 6]					Chemotherapeut. Index [2]: 5; minimal effective dose [2]: 10 mg/kg
O=C(Nc1ccc(Cl)cc1)c1cc(Br)ccc1NS(=O)(=O)c1ccc(Cl)cc1 [Verbindung 9, 5-Brom-2-[(4-chlor-phenylsulfonyl)-amino]-benzoesäure-(4-chlor-anilid)]	2.5 mg/kg	20	5 mg/kg	10	
O=C(Nc1ccc(Cl)cc1)c1cc(Cl)c(Cl)cc1NS(=O)(=O)c1ccc(Cl)cc1 [Verbindung 12, 4,5-Dichlor-2-[(4-chlor-phenylsulfonyl)-amino]-benzoesäure-(4-chlor-anilid)]			5 mg/kg	10	
O=C(Nc1ccc(F)cc1)c1cc(Cl)cc(Cl)c1NS(=O)(=O)c1ccc(Cl)cc1 [Verbindung 14, 3,5-Dichlor-2-[(4-chlor-phenylsulfonyl)-amino]-benzoesäure-(4-fluor-anilid)]			7.5 mg/kg	5	
CCCCCCCCCCCCNC(=O)c1cc(Cl)cc(Cl)c1NS(=O)(=O)c1ccc(Cl)cc1 [Verbindung 16]					Chemotherapeut. Index [2]: 10; minimal effective dose [2]: 5 mg/kg
CCCCCCCCCCCCNC(=O)c1cc(Cl)ccc1NS(=O)(=O)c1ccc(Cl)cc1 [Verbindung 17, 5-Chlor-2-[(4-chlor-phenylsulfonyl)-amino]-benzoesäure-dodecylamid]			2.5 mg/kg	20	
CCCCCCCCCCCCN(C)C(=O)c1cc(Cl)ccc1NS(=O)(=O)c1ccc(Cl)cc1 [Verbindung 19, 5-Chlor-2-[(4-chlor-phenylsulfonyl)-amino]-benzoesäure-(N-methyl-dodecylamid)]			7.5 mg/kg	5	
O=C(Nc1ccc(Cl)cc1)c1cc(Cl)ccc1NS(=O)(=O)c1ccc(Cl)cc1Cl [Verbindung 25, 5-Chlor-2-[(2,4-dichlor-phenylsulfonyl)-amino]-benzoesäure-(4-chloranilid)]			7.5 mg/kg	6	
O=C(Nc1ccc(Cl)cc1)c1cc(Cl)ccc1NS(=O)(=O)c1ccc(Cl)c(Cl)c1 [Verbindung 26, 5-Chlor-2-[(3,4-dichlor-phenylsulfonyl)-amino]-benzoesäure-(4-chlor-anilid)]		über 25	1 mg/kg	über 25	Dosis (>90% Reduktion der Wurmbürde) [1, 3]: 1 mg/kg Körpergewicht
CCCCCCCCNC(=O)c1cc(Cl)ccc1NS(=O)(=O)c1ccc(Cl)c(Cl)c1 [Verbindung 27, 5-Chlor-2-[(3,4-dichlor-phenylsulfonyl)-amino]-benzoesäure-octylamid]			7.5 mg/kg	8	
CCN(C(=O)c1cc(Cl)ccc1NS(=O)(=O)c1ccc(Cl)c(Cl)c1)c1ccc(Cl)cc1 [Verbindung 29]			1.5 mg/kg	über 25	
CN(c1ccc(Cl)cc1C(=O)Nc1ccc(Cl)cc1)S(=O)(=O)c1ccc(Cl)c(Cl)c1 [Verbindung 30, 5-Chlor-2-[(3,4-dichlor-phenylsulfonyl)-methylamino]-benzoesäure-(4-chlor-anilid)]			5 mg/kg	10	
CCCCCCCCCCCCCCCCCCNC(=O)c1cc(Cl)ccc1NS(=O)(=O)c1ccc(Cl)c(Cl)c1 [Verbindung 32, 5-Chlor-2-[(3,4-dichlor-phenyl-sulfonyl)-amino]-benzoesäure-octa-decylamid]			5 mg/kg	10	
O=C(Nc1ccc(C(F)(F)F)cc1)c1cc(Cl)ccc1NS(=O)(=O)c1ccc(Cl)c(Cl)c1 [Verbindung 34, 5-Chlor-2-[(3,4-dichlor-phenylsulfonyl)-amino]-benzoesäure-(4-trifluormethyl-anilid)]			2.5 mg/kg	20	
CCS(=O)(=O)c1ccc(NS(=O)(=O)c2ccc(Cl)c(Cl)c2)c(C(=O)Nc2ccc(Cl)cc2)c1 [Verbindung 40]			5 mg/kg	10	
